Assay results published in PubChem BioAssay (NCI).
Where “and” joins values, the source holds several entries; their conditions need not be identical. Equal values may be shown once.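 Five concentrations, 48 hours, 96-well plates. Abbreviation: GI50, concentration required for 50% inhibition of growth. TGI: concentration producing complete growth inhibition.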

Key:
Assay in all cases: DTP human tumour cell line panel, 48 h
[1] = system: LOX IMVI melanoma
[2] = system: HOP-92 NSCLC
[3] = system: K-562 leukemia
[4] = system: OVCAR-4 ovarian
[5] = system: NCI-H460 lung
[6] = system: MOLT-4 leukemia
[7] = system: ACHN renal
[8] = system: HS 578T breast
[9] = system: OVCAR-8 ovarian
[10] = system: HT29 colon
[11] = system: SF-268 CNS
[12] = system: RPMI-8226 leukemia
[13] = system: A498 renal
[14] = system: U251 CNS
[15] = system: MDA-MB-231 breast
[16] = system: BT-549 breast
[17] = system: SN12C renal
[18] = system: IGROV1 ovarian
[19] = system: MALME-3M melanoma
[20] = system: CCRF-CEM leukemia
[21] = system: HCT-15 colon
[22] = system: RXF 393 renal
[23] = system: OVCAR-5 ovarian
[24] = system: 786-0 renal
[25] = system: NCI-H522 lung
[26] = system: UO-31 renal
[27] = system: MDA-N
[28] = system: SK-MEL-2 melanoma
[29] = system: EKVX NSCLC
[30] = system: SR leukemia
[31] = system: DU-145 prostate
[32] = system: MCF7 breast
[33] = system: NCI-H23 lung
[34] = system: SK-MEL-28 melanoma
[35] = system: SNB-75 CNS
[36] = system: UACC-257 melanoma
[37] = system: SNB-19 CNS
[38] = system: T-47D breast
[39] = system: HCC-2998 colon
[40] = system: UACC-62 melanoma
[41] = system: HL-60(TB) leukemia
[42] = system: PC-3 prostate
[43] = system: SF-539 CNS
[44] = system: CAKI-1 renal
[45] = system: NCI-H226 lung
[46] = system: A549 NSCLC
[47] = system: SF-295 CNS
[48] = system: OVCAR-3 ovarian
[49] = system: KM12 colon
[50] = system: M14 melanoma
[51] = system: SK-MEL-5 melanoma
[52] = system: TK-10 renal
[53] = system: HCT-116 colon
[54] = system: SW-620 colon
[55] = system: HOP-62 NSCLC

N#Cc1c(-c2ccccc2)c(C#N)c(=S)n(C2OC(CO)C(O)C(O)C2O)c1N (stereo not drawn)
TGI [1]: > 100 µM
GI50 [2]: 42 µM and 21 µM
TGI [2]: > 100 µM
TGI [3]: > 100 µM
TGI [4]: > 100 µM
TGI [5]: > 100 µM
GI50 [6]: 39.3 µM and > 100 µM
TGI [6]: > 100 µM
TGI [7]: > 100 µM
TGI [8]: > 100 µM
TGI [9]: > 100 µM
TGI [10]: > 100 µM
TGI [11]: > 100 µM
TGI [12]: > 100 µM
TGI [13]: > 100 µM
TGI [14]: > 100 µM
TGI [15]: > 100 µM
TGI [16]: > 100 µM
TGI [17]: > 100 µM
GI50 [18]: > 100 µM and 45.5 µM
TGI [18]: > 100 µM
TGI [19]: > 100 µM
TGI [20]: > 100 µM
TGI [21]: > 100 µM
TGI [22]: > 100 µM
TGI [23]: > 100 µM
TGI [24]: > 100 µM
TGI [25]: > 100 µM
GI50 [26]: > 100 µM and 40.3 µM
TGI [26]: > 100 µM
TGI [27]: > 100 µM
TGI [28]: > 100 µM
GI50 [29]: 44.4 µM and > 100 µM
TGI [29]: > 100 µM
TGI [30]: > 100 µM
TGI [31]: > 100 µM
GI50 [32]: 91.1 µM and 41.6 µM
TGI [32]: > 100 µM
TGI [33]: > 100 µM
TGI [34]: > 100 µM
TGI [35]: > 100 µM
TGI [36]: > 100 µM
TGI [37]: > 100 µM
TGI [38]: > 100 µM
TGI [39]: > 100 µM
TGI [40]: > 100 µM
TGI [41]: > 100 µM
TGI [42]: > 100 µM
TGI [43]: > 100 µM
TGI [44]: > 100 µM
TGI [45]: > 100 µM
TGI [46]: > 100 µM
TGI [47]: > 100 µM
TGI [48]: > 100 µM
TGI [49]: > 100 µM
TGI [50]: > 100 µM
TGI [51]: > 100 µM
GI50 [52]: 40.5 µM and > 100 µM
TGI [52]: > 100 µM
TGI [53]: > 100 µM
TGI [54]: > 100 µM
GI50 [55]: > 100 µM and 36 µM
TGI [55]: > 100 µM
